Among the data in patent US11780849B2, “Imino sulfanone inhibitors of ENPP1” (Volastra Therapeutics, Inc., priority 2020, dated 2023) are Ki values, retold here.

Structures are written as SMILES. Read-outs that look alike come from different tables or passages of the source.

This assay deals with ENPP-1 ECD (Homo sapiens (Human), UniProt P22413). Description: Assay 2: inhibition of ENPP1 hydrolysis of 2′,3′-cGAMP (AMP-Glo, […] enzyme).
[1] abbreviates: Assay 2 (KI), inhibition of ENPP1 hydrolysis of 2′,3′-cGAMP, no unit in Table 18 (Table 17 legend for this assay uses nM).
[2] abbreviates: read-out: Assay 2 (KI), ENPP1 hydrolysis of 2′,3′-cGAMP, AMP-Glo, […] ENPP-1, 24 μM cGAMP.
[3] abbreviates: read-out: Assay 2 (KI), inhibition of ENPP1 hydrolysis of 2′,3′-cGAMP, no unit in Table 18 (Table 17 legend for this assay uses nM).
[4] abbreviates: Assay 2 (KI), ENPP1 hydrolysis of 2′,3′-cGAMP, AMP-Glo, […] ENPP-1, 24 μM cGAMP.

ENPP-1 ECD, sequence (P22413 98-925): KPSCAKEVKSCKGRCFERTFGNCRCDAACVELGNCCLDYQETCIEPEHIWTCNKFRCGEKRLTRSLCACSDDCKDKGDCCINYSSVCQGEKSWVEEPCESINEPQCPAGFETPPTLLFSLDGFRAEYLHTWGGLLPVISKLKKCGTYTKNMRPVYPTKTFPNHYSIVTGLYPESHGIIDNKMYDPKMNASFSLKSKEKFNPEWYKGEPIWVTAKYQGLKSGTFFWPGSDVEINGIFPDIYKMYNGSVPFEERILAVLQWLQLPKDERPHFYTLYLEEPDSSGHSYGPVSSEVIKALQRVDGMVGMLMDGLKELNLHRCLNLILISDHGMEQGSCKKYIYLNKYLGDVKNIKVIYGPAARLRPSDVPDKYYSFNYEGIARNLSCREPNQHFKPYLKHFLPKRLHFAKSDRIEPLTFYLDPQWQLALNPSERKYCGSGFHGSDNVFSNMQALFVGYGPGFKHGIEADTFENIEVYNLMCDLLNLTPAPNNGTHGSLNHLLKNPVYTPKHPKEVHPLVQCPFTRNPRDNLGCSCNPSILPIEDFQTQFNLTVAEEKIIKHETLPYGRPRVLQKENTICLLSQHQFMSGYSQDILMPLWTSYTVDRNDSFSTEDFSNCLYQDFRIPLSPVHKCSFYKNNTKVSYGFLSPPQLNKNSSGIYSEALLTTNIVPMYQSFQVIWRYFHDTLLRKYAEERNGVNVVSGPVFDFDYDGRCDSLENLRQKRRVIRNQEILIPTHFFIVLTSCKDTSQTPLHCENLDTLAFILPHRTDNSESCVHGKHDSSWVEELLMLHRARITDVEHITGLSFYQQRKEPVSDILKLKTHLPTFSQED
Method: Assay 2: Compared to the conditions in Assay 1, this assay has a larger dynamic range and ensures the system is under steady-state conditions by reducing the enzyme concentration in the assay.
Test compounds were plated in a 3× dilution scheme in a 384 well plate. […] AMP Detection solution (10 μL) was added to each well, the plate centrifuged and incubated for 60 min.

Under setting [1], `COc1ccc2c(OCC3CCS(=N)(=O)CC3)ccnc2c1` (single isomer, unassigned) [Compound 107a, 4-[(1-imino-1-oxido-3,4,5,6-tetrahydro-2H-thiopyran-4-yl)methoxy]-7-methoxy-quinoline] showed a Ki of 27 nM.

Under setting [1], `COc1ccc2c(OCC3CCS(=N)(=O)CC3)ccnc2c1` (single isomer, unassigned) [Compound 107b, 4-[(1-imino-1-oxido-3,4,5,6-tetrahydro-2H-thiopyran-4-yl)methoxy]-7-methoxy-quinoline] showed a Ki of 74 nM.

On to `COc1cc2ncnc(-c3ccc4c(c3)CN([S@@](C)(=N)=O)CC4)c2cc1OC` [Compound 37a], for which the Ki by setting is: under setting [2], 3 to 300 nM; under setting [3], 21 nM.

As for `COc1ccc2c(-c3ccc4c(c3)CN([S@](C)(=N)=O)CC4)ccnc2c1` [Compound 52a], the Ki runs as follows: under setting [2], 3 to 300 nM; under setting [3], 110 nM.

As to `COc1ccc2c(-c3ccc4c(c3)CN([S@@](C)(=N)=O)CC4)ccnc2c1` [Compound 52b], the Ki was 3 to 300 nM under setting [2] and 3.5 nM under setting [3].

Take `COc1ccc2c(Oc3ccc(S(C)(=N)=O)cc3)ccnc2n1` (centres unmarked) [Compound 78, imino(4-((7-methoxy-1,8-naphthyridin-4-yl)oxy)phenyl)(methyl)-λ^6-sulfanone]: the Ki under setting [4] lay in the range of 3 to 300 nM and the Ki under setting [1] was 150 nM.

For the compound `COc1cc2ncnc(N3CCC(CN[S@](C)(=N)=O)CC3)c2cc1OC` [Compound 94b], the Ki runs as follows: under setting [2], 3 to 300 nM; under setting [3], 9 nM.

For `COc1ccc2c(OCC3CCS(=N)(=O)CC3)ccnc2c1` (centres unmarked) [Compound 107, 4-[(1-imino-1-oxido-3,4,5,6-tetrahydro-2H-thiopyran-4-yl)methoxy]-7-methoxy-quinoline], the inhibition constant Ki under setting [1] was determined as 80 nM.

Turning to `COCCS(=N)(=O)c1ccc(Oc2ccnc3cc(OC)ccc23)cc1` (centres unmarked) [Compound 122, imino(2-methoxyethyl){4-[(7-methoxyquinolin-4-yl)oxy]phenyl}-λ^6-sulfanone], the Ki is below 3 nM under setting [4] and 1.6 nM under setting [1].

For the compound `COc1cc2nccc(N3CCC(CC[S@](C)(=N)=O)CC3)c2cc1Cl` [Compound 141b], the Ki was 3 to 300 nM under setting [2] and 31 nM under setting [3].

Consider `COc1cc2ncnc(N3CCC(CCCS(C)(=N)=O)CC3)c2cc1OC` (centres unmarked) [Compound 145, {3-[1-(6,7-dimethoxyquinazolin-4-yl)piperidin-4-yl]propyl}(imino)methyl-λ^6-sulfanone], for which the Ki runs as follows: under setting [4], 3 to 300 nM; under setting [1], 8.7 nM.

`COc1cccc2c(N3CCC(C[S@](C)(=N)=O)CC3)ncnc12` [Compound 146b]: under setting [3], the Ki stood at 66 nM.

`COc1cc2ncnc(N3CCC(CS(C)(=N)=O)CC3)c2cc1OC` (centres unmarked) [Compound 147, {[1-(6,7-dimethoxyquinazolin-4-yl)piperidin-4-yl]methyl}(imino)methyl-λ^6-sulfanone]: the Ki is, setting by setting: under setting [4], 3 to 300 nM; under setting [1], 9.9 nM.

`COc1ccc2c(N3CCC(CS(C)(=N)=O)CC3)ccnc2c1` (centres unmarked) [Compound 148, imino({[1-(7-methoxyquinolin-4-yl)piperidin-4-yl]methyl})methyl-λ^6-sulfanone] returned a Ki under setting [4] of 3 to 300 nM and a Ki under setting [1] of 56 nM.

For the compound `COc1cc2nccc(N3CCC4(CC3)CCN([S@](C)(=N)=O)C4)c2cc1Cl` [Compound 156b], the Ki was below 3 nM under setting [2] and 2.9 nM under setting [3].

On to `COc1cc2nccc(N3CCC(CNS(C)(=N)=O)CC3)c2cc1Cl` (centres unmarked) [Compound 157, N-{[1-(6-chloro-7-methoxyquinolin-4-yl)piperidin-4-yl]methyl}methanesulfonoimidamide], for which the Ki under setting [4] is below 3 nM and the affinity under setting [1], expressed as Ki, was 2.7 nM.

As to `COc1ccc2c(N3CCC4(CC3)CCN(S(C)(=N)=O)C4)ccnc2n1` (centres unmarked) [Compound 158, imino[8-(7-methoxy-1,8-naphthyridin-4-yl)-2,8-diazaspiro[4.5]decan-2-yl]methyl-λ^6-sulfanone], the Ki was below 3 nM under setting [4] and 0.44 nM under setting [1].

With `COc1cc2ncnc(N3CCC4(CC3)CCN([S@@](=N)(=O)C3CC3)C4)c2cc1OC` [Compound 160b], the Ki under setting [3] came out at 1.7 nM.

Regarding `COc1cc2nccc(-c3ccc4c(c3)CN([S@](C)(=N)=O)CC4)c2cc1OC` [Compound 161b], the inhibition constant (Ki) under setting [2] was below 3 nM and the Ki under setting [3] turned out to be 0.64 nM.

`COc1ccc2c(-c3ccc4c(c3)CN(S(C)(=N)=O)CC4)ccnc2n1` (centres unmarked) [Compound 163, imino[7-(7-methoxy-1,8-naphthyridin-4-yl)-1,2,3,4-tetrahydroisoquinolin-2-yl]methyl-λ^6-sulfanone] gave a Ki under setting [4] of 3 to 300 nM and an inhibition constant Ki under setting [1] of 21 nM.

Consider `COc1cc2ncnc(OCC3CCN(S(C)(=N)=O)CC3)c2cc1OC` (centres unmarked) [Compound 164, (4-{[(6,7-dimethoxyquinazolin-4-yl)oxy]methyl}piperidin-1-yl)(imino)methyl-λ^6-sulfanone], for which the inhibition constant Ki was 3 to 300 nM under setting [4] and 97 nM under setting [1].

Compound `COc1ccc2c(Oc3ccc(S(C)(=N)=O)cc3)ncnc2c1` (centres unmarked) [Compound 167, imino({4-[(7-methoxyquinazolin-4-yl)oxy]phenyl})methyl-λ^6-sulfanone] registered a Ki under setting [1] of 7.9 nM.

On to `COc1cc2ncnc(OCC3CCS(=N)(=O)CC3)c2cc1OC` (centres unmarked) [Compound 171, 4-{[(6,7-dimethoxyquinazolin-4-yl)oxy]methyl}-1-imino-1λ^6-thian-1-one], for which, under setting [1], the affinity, expressed as Ki, was 49 nM.

For the compound `COc1ccc2c(OCc3cncc(S(C)(=N)=O)c3)ccnc2c1` (centres unmarked) [Compound 172, imino(5-{[(7-methoxyquinolin-4-yl)oxy]methyl}pyridin-3-yl)methyl-λ^6-sulfanone], under setting [1], the affinity corresponds to a Ki of 11 nM.

`COc1cc2nccc(OCc3cccc([S@@](C)(=N)=O)c3)c2cc1OC` [Compound 175b]: the Ki under setting [3] was 4.1 nM.

For the compound `COc1ccc2c(OCc3cc(F)cc([S@@](C)(=N)=O)c3)ccnc2c1` [Compound 177a], the Ki under setting [3] was 20 nM.

Under setting [1], `COc1ccc2c(O[C@H](C)c3cccc(S(C)(=N)=O)c3)ccnc2c1` (stereo partly drawn) [Compound 178, imino({3-[(1R)-1-[(7-methoxyquinolin-4-yl)oxy]ethyl]phenyl})methyl-λ^6-sulfanone] had a Ki of 2.6 nM.

Consider `COc1ccc2c(O[C@H](C)c3cccc([S@](C)(=N)=O)c3)ccnc2c1` [Compound 178b], for which the Ki under setting [3] is 34 nM.

Regarding `COc1cccc2c(N3CCC(C[S@@](C)(=N)=O)CC3)c(C#N)cnc12` [Compound 179a], under setting [3], the Ki worked out at 9.1 nM.

In the case of `COc1cccc2c(N3CCC(CS(C)(=N)=O)CC3)ccnc12` (centres unmarked) [Compound 180, imino({[1-(8-methoxyquinolin-4-yl)piperidin-4-yl]methyl})methyl-λ^6-sulfanone], the Ki under setting [1] came out at 16 nM.

`COc1cccc2c(N3CCC(CS(C)(=N)=O)CC3)cnnc12` (centres unmarked) [Compound 182, imino({[1-(8-methoxycinnolin-4-yl)piperidin-4-yl]methyl})methyl-λ^6-sulfanone] displayed an inhibition constant (Ki) under setting [1] of 3.1 nM.

Regarding `COc1cc(F)cc2c(N3CCC(CS(C)(=N)=O)CC3)ncnc12` (centres unmarked) [Compound 183, {[1-(6-fluoro-8-methoxyquinazolin-4-yl)piperidin-4-yl]methyl}(imino)methyl-λ^6-sulfanone], the Ki under setting [1] came out at 5.2 nM.

Regarding `COc1cc(F)cc2c(N3CCC(C[S@@](C)(=N)=O)CC3)ncnc12` [Compound 183a], the Ki under setting [3] is 2.9 nM.

On to `COc1cc(F)cc2c(N3CCC(CS(C)(=N)=O)CC3)ncnc12` (centres unmarked) [Compound 183b], for which, under setting [3], the Ki was above 150 nM.
